Laboratory results published in US5679671A, “Amino acid derivative” (Eisai Co., Ltd., priority 1993, dated 1997).

Target: T1, vasopressin (V1) receptor (Rattus norvegicus, UniProt P30560)
T1 construct: Membrane specimens of rat liver (V1); from tissue; host or cells: rat liver membranes
Assay: V1 receptor binding assay, rat liver membrane (Experiment E-3)
Settings: [3H]-Arg-vasopressin, pH 7.4
Procedure: Membrane specimens of rat liver (V1) and rat kidney (V2) were used. 100,000 counts (3.69 nM) of [^3 H]-Arg-vasopressin, 25 μg (1 mg protein/ml) of each membrane specimen and a test medicament (10^-7 to 10^-5 M) were incubated in a total volume of 250 μl of an assay buffer (pH=7.4) containing 10 mM of MgCl2, 2 mM of EGTA and 20 mM of HEPES at 4° C. over day and night. Then, the incubation was washed with 5-ml portions of the buffer 5 times to thereby separate the membrane specimen binding to vasopressin followed by filtration with the use of a glass filter (GF/F). This glass filter was dried for about 3 hours and mixed with a cocktail for liquid scintillation (10 ml, ACSII). After allowing to stand overnight, the amount of the [^3 H]-Arg-vasopressin binding to the membrane was determined with a liquid scintillation counter and the inhibition ratio was calculated in accordance with the following formula: […]
B1; the amount of [^3 H]-Arg-vasopressin binding to the membrane in the presence of excessive vasopressin (10 μM)
C0; the amount of [^3 H]-Arg-vasopressin binding to the membrane in the absence of the test medicament and
C1; the amount of [^3 H]-Arg-vasopressin binding to the membrane in the presence of both the test medicament in a known amount and [^3 H]-Arg-vasopressin. […]

T1 sequence (P30560 whole entry): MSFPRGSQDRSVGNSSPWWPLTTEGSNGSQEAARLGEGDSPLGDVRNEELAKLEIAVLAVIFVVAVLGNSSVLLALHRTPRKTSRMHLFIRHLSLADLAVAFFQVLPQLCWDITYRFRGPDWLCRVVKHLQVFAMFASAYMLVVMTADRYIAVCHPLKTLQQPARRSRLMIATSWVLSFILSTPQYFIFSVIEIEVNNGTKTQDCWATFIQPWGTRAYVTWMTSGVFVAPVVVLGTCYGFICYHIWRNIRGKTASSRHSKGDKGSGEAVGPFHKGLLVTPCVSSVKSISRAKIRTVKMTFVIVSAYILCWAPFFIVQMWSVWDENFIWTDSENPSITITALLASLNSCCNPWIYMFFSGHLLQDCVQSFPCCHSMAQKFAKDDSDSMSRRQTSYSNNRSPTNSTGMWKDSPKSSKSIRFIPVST

- IC50: ≥ 10 µM
SMILES: CC(C)[C@H](S)C(=O)N[C@H]1Cc2ccc(-c3ccccc3)cc2[C@H]2CCC[C@@H](C(=O)O)N2C1=O [Example E-10, [4S-[4α,7α(R*),12bβ]]-7-[(S)-2-Mercapto-3-methylbutyrylamino]-6-oxo-11-phenyl-1,2,3,4,6,7,8,12b-octahydropyrido[2,1-a][2]benzazepine-4-carboxylic acid]
